Laboratory results from US11180505B2, “Crystal form of PARP-1 inhibitor and preparation method therefor” (Jiangsu Hengrui Medicine Co., Ltd., priority 2017, dated 2021).
Read-outs that look alike come from different tables or passages of the source.

Experiments:
[1] = accelerated stability test of the crystal form (XRD comparison); format: physicochemical; settings: 40° C., relative humidity of 75%, 6 months, XRD compared with 0 month
Method: The sample of Example 1 was subjected to an accelerated stability test (40° C., relative humidity of 75%) for 6 months and then sent to XRD for testing, and compared with the original data to confirm whether the crystal form changed.
Among them, the XRPD pattern of crystal form A of the compound of formula I after 6 months of the accelerated stability test (40° C., relative humidity of 75%) is shown in FIG. 3. The comparative XRPD pattern of crystal form A of the compound of formula I after accelerated stability test is shown in FIG. 4.

PARP enzyme = PARP enzyme (Homo sapiens, UniProt P09874); settings: in vitro; cited from earlier work
Chain of PARP enzyme (P09874 whole entry): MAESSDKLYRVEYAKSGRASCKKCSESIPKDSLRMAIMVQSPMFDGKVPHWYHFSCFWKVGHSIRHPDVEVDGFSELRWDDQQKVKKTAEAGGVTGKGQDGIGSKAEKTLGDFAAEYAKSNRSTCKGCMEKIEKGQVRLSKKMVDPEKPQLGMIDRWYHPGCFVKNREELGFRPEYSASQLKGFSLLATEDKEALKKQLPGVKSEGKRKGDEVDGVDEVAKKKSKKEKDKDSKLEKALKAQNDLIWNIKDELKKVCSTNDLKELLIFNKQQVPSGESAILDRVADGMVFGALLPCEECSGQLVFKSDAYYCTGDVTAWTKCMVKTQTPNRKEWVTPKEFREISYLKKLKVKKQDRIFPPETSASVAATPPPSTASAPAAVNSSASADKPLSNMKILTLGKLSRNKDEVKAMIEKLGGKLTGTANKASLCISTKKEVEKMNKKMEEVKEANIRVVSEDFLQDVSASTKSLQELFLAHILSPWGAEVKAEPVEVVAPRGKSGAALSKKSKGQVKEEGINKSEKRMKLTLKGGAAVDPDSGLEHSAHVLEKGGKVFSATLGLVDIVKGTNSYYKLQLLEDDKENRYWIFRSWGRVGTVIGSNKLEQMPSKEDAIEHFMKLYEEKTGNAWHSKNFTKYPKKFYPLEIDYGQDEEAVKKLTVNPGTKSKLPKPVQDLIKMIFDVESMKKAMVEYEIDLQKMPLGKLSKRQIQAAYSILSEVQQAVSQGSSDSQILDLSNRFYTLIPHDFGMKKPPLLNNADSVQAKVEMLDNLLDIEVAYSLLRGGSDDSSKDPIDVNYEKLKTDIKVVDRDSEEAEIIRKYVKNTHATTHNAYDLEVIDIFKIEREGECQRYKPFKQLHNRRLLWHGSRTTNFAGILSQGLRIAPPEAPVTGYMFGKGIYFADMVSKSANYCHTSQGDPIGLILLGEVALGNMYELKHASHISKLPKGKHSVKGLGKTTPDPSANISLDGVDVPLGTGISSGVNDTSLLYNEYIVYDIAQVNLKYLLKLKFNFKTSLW

transplanted tumor = settings: nude-mouse transplanted tumor model; cited from earlier work
[2] = rat, in vivo; cited from earlier work
[3] = dog, in vivo; cited from earlier work

## O=C(c1cc(Cc2n[nH]c(=O)c3ccccc23)ccc1F)N1CCn2nc(C(F)(F)F)nc2C1 [Example 1]
[1]
  crystal form change after accelerated stability test: did not change

## O=C(c1cc(Cc2n[nH]c(=O)c3ccccc23)ccc1F)N1CCn2nc(C(F)(F)F)nc2C1 [formula I]
PARP enzyme
  inhibition of the activity of PARP enzyme: inhibit the activity of PARP enzyme significantly
Transplanted tumor
  inhibition of tumor growth: inhibit tumor growth significantly
[2]
  safety (toxicological data): has a corresponding safety
[3]
  safety (toxicological data): has a corresponding safety
